The values that follow come from ChEMBL document CHEMBL1201862, “PubChem BioAssay data set” (2004).

Calls of active or inactive are those of the source.

Test [1] can be described thus: inhibitors of firefly luciferase expression or activity, dose response, H4 neuroglioma cells, luminescence (AID 1990). Format: functional, cell-based.
Test [2] in a line: Luminescence Cell-Based Dose Response HTS to Identify Inhibitors of 5'UTR Stem-Loop Driven Prion Protein mRNA Translation in H4 Neuroglioblastoma Cells. [Related pubchem assays: 1827 (Project Summary), 1813 (Primary HTS)]. Format: functional.
Test [3] in a line: inhibitors of SNCA 5'UTR-driven reporter translation, confirmation, H4 neuroglioma cells, luminescence (AID 1988). Format: functional, cell-based.
The target in another test is Cytochrome P450 3A4 (Homo sapiens, UniProt P08684).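 Further: CYP3A4 tested as one member of a cytochrome P450 panel screen.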
The next test deals with Cytochrome P450 2C9 (Homo sapiens, UniProt P11712).
The target in test [4] is T1, Calpain-2 catalytic subunit (Sus scrofa, UniProt P43367).
T1 sequence (P43367 whole entry): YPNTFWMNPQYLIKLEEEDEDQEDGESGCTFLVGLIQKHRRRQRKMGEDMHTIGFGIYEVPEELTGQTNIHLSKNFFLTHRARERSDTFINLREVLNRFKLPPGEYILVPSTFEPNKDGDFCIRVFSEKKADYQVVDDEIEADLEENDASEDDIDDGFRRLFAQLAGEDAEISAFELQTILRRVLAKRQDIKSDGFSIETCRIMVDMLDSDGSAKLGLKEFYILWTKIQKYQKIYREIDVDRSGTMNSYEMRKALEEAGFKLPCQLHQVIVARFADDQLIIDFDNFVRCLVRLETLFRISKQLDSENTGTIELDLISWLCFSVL
The test is described as follows: pig calpain II inhibitor potency, dose response, biochemical, fluorogenic peptide substrate (AID 1420). Format: functional.

A further test concerns the target T2, Leucine aminopeptidase (Plasmodium falciparum 3D7, UniProt Q8IL11).
T2 sequence (Q8IL11 whole entry): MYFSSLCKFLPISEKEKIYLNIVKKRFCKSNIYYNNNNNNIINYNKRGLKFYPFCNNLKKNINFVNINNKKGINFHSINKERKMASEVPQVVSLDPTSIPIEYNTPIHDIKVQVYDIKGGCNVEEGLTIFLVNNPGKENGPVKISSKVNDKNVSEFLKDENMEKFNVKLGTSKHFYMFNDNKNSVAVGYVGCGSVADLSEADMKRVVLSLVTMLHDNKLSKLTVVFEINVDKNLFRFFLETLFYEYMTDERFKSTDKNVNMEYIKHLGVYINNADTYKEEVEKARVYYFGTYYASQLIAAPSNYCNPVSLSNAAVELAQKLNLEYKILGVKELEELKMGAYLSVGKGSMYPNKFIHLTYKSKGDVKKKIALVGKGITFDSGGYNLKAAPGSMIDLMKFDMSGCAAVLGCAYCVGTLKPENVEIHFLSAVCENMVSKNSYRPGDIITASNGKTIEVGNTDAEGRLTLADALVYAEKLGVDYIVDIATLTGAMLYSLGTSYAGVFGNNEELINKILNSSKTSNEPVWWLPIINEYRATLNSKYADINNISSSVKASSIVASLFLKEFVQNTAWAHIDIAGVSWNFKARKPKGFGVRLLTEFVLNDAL
Put plainly: P. falciparum M17LAP inhibitors, primary screen, biochemical, fluorogenic H-Leu-NHMec substrate, 1536-well (AID 1619). In kind it is functional.

Test [5] is described as follows: Luminescence Cell-Based Dose Confirmation HTS to Identify Activators of 5'UTR Stem-Loop Driven Alpha-Synuclein mRNA Translation in H4 Neuroglioblastoma Cells. [Related pubchem assays: 1829 (Project Summary), 1814 (Primary HTS)]. In kind it is functional.
Test [6] is described as follows: Luminescence Cell-Based Dose Response HTS to Identify Activators of Luciferase Translation or Activity in H4 […] Cells. [Related pubchem assays: 1829 (Project Summary), 1814 (Primary HTS)]. In kind it is functional.
In the next test the test system is H4. The test is described as follows: Luminescence Cell-Based Dose Response HTS to Identify Activators of 5'UTR Stem-Loop Driven Prion Protein mRNA Translation in H4 Neuroglioblastoma Cells. [Related pubchem assays: 1829 (Project Summary), 1814 (Primary HTS)]. Format: functional. Conditions: Homo sapiens.
The target of test [7] is T3, Corticotropin-releasing factor receptor 2/Corticotropin-releasing factor-binding protein (Homo sapiens, UniProt P24387+Q13324).
T3 sequence (Q13324 whole entry): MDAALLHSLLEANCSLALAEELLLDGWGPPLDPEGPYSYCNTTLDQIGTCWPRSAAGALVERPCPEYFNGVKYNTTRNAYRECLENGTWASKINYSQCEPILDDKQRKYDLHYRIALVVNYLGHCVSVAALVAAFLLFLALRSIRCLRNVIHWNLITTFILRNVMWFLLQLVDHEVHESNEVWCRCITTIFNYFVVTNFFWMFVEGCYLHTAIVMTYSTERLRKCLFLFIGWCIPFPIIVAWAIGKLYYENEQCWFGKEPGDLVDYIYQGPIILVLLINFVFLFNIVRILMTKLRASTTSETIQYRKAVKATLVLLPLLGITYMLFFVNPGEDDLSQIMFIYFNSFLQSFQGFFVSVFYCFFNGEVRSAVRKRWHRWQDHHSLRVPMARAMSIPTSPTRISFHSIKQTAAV
T3 sequence (P24387 whole entry): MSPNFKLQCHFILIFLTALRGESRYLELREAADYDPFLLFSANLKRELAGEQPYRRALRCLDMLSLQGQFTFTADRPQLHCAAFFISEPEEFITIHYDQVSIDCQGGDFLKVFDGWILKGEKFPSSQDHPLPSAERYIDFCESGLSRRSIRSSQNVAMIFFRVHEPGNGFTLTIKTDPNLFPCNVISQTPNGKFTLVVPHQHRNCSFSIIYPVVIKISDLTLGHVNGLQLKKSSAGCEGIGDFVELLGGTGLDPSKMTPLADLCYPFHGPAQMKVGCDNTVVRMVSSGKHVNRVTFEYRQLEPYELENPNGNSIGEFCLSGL
The test is described as follows: Dose Response confirmation of uHTS hits for small molecule antagonists of the CRF-binding protein and CRF-R2 receptor complex. Format: functional. Particulars: read-out: IC50_Mean.

The target in test [8] is T3, Corticotropin-releasing factor receptor 2/Corticotropin-releasing factor-binding protein. Put plainly: activators of CRF receptor 2 with binding protein – uHTS hits, confirmation (AID 602473). Conditions: read-out: EC50_Mean. Format: functional.
In a further test the target is Cytochrome P450 2C19 (Homo sapiens, UniProt P33261). The test is described as follows: Cytochrome panel assay with activity outcomes. Panel member name: p450-cyp2c19 Compounds with AC50 equal or less than 10 uM are considered active. Conditions: read-out: AC50. Format: functional.
A further test deals with Cytochrome P450 2D6 (Homo sapiens, UniProt P10635).
For a further test, the target named is Paired box protein Pax-8 (Homo sapiens, UniProt Q06710). Put plainly: inhibitors of PAX8-driven TPO luciferase reporter, dose response, RMG-I cells, cherry-pick (AID 687027).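 Further: luciferase reporter driven by Pax8 target thyroperoxidase promoter measured by SteadyGlo luminescence.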 In kind it is functional, cell-based. (In a reporter assay the amount or activity of a reporter protein is the signal.)
Chain of Paired box protein Pax-8 (Q06710 whole entry): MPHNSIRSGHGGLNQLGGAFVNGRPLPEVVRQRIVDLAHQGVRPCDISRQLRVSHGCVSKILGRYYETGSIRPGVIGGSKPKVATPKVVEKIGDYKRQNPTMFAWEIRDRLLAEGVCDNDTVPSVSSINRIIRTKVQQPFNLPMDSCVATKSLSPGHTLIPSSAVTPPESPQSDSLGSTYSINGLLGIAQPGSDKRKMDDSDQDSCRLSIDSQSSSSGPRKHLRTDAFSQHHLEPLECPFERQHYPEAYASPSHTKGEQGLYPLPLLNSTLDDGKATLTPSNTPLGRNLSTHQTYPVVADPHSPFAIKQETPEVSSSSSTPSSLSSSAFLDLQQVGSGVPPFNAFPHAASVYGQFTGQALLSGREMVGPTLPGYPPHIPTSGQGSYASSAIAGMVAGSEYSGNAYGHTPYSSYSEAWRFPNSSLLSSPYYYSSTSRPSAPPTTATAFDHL

Chain of Cytochrome P450 2C9 (P11712 whole entry): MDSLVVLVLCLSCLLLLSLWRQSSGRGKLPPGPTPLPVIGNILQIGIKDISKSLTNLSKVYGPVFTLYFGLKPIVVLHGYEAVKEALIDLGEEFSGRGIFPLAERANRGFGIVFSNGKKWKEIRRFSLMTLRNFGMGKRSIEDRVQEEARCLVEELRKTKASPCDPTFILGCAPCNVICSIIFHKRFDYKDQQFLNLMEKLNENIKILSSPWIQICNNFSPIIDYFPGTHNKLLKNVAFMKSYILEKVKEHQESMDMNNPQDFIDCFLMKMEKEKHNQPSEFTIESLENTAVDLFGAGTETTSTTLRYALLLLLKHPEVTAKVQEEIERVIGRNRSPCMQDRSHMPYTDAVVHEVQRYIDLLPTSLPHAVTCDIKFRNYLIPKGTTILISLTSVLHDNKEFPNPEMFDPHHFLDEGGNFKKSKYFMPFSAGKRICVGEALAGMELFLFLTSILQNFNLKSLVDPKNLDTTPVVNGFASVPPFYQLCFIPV
Chain of Cytochrome P450 2C19 (P33261 whole entry): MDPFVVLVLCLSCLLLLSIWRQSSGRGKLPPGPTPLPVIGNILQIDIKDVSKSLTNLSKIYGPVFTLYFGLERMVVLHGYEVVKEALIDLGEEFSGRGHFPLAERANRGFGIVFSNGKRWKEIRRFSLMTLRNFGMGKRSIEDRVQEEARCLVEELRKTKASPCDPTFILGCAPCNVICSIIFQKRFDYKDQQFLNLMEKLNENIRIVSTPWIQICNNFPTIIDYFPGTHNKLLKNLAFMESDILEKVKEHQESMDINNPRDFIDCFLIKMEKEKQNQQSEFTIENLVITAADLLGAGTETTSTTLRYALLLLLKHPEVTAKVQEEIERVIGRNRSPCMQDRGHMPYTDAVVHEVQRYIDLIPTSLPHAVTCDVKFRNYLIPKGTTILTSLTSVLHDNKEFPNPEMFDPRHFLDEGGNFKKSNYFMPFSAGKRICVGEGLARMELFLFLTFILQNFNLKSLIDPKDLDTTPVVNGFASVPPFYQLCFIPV
Chain of Cytochrome P450 3A4 (P08684 whole entry): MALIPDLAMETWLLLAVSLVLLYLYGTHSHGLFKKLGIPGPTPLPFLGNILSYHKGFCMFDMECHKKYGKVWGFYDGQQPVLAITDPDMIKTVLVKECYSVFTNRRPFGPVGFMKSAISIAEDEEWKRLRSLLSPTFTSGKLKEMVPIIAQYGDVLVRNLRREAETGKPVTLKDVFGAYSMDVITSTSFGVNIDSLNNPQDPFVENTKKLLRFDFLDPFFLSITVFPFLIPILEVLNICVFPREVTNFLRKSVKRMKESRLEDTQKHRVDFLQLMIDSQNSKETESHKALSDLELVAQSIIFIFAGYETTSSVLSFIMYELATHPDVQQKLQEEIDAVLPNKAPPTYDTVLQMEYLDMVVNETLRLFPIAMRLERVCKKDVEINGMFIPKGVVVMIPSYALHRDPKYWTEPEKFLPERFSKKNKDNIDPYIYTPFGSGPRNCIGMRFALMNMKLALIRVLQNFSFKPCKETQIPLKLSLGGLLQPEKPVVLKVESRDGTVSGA
Chain of Cytochrome P450 2D6 (P10635 whole entry): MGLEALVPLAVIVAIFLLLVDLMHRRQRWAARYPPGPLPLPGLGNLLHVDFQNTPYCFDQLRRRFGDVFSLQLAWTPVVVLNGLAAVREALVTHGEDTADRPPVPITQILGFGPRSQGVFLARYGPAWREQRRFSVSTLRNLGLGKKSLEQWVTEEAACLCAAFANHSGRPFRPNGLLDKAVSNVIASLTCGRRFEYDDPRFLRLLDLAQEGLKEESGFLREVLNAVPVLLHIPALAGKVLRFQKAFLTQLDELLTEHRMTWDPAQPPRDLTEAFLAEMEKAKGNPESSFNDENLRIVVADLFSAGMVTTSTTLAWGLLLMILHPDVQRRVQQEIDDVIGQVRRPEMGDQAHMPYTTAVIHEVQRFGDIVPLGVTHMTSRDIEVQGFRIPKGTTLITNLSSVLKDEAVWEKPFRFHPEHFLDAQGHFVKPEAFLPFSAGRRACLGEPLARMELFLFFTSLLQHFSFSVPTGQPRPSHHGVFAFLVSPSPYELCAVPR

Turning to `COC(=O)c1nn(-c2ccccc2)c(-c2ccccc2)c1C(=O)c1ccccc1`, the EC50 in test [1], in test [2] and in test [3] was > 120 µM (not active) in each case. The figures for the AC50 on Cytochrome P450 3A4 and at Cytochrome P450 2C9 were 14.1 µM (inconclusive) and 15.8 µM (inconclusive), respectively. `Cc1ccc(-c2nc(N)sc2-c2ccc(C)cc2)cc1`: the IC50 in test [4] is listed as 3.19 µM (not active). Consider `CC1CCCCN1C(=O)CSc1nc(O)cc(-c2ccccc2)n1` (stereo not given), for which the IC50 at Leucine aminopeptidase is 63.5 µM (active). Consider `CCOCCCNC(=O)C1CCC(CNS(=O)(=O)c2ccc(Cl)cc2)CC1` (stereo not given), for which the IC50 in test [4] is > 50 µM (not active). Consider `Cc1ccc(NC(=O)CSC2=C(C#N)C(c3ccco3)CC(=O)N2)cc1` (stereo not given), for which the EC50 in test [5] is 0.908 µM (active); in [6] it was 12.4 µM (active); in the test on H4, 16.1 µM (active); in [8], > 53 µM (inactive). In addition, the IC50 in test [7] is > 47.1 µM (inactive). Turning to `Cn1cc(C(=O)c2ccccc2)c2ccccc21`, the IC50 in test [7] was > 47.1 µM (inactive). In addition, the EC50 in [8] was > 53 µM (inactive). For the compound `O=C(CCn1c(=O)[nH]c2ccsc2c1=O)NCc1ccc(F)cc1`, the IC50 in test [4] is < 0.4 µM (not active). Turning to `Cc1ccc(Sc2c(C=O)c3ccccc3n2C)cc1`, the IC50 in test [7] is > 47.1 µM (inactive). Further, the EC50 in [8] is > 53 µM (inactive). In the case of `Cc1ccc(O)c(-c2cc(C(F)(F)C(F)F)nc(-c3ccccc3)n2)c1`, the AC50 was 14.1 µM (inconclusive) on Cytochrome P450 2C19, 8.91 µM (inconclusive) on Cytochrome P450 3A4 and 7.08 µM (inconclusive) at Cytochrome P450 2C9. Regarding `O=C(Nc1cccc2ncccc12)c1ccc(-c2ccc(Br)cc2)o1`, the AC50 at Cytochrome P450 2D6 was 12.6 µM (inconclusive); on Cytochrome P450 2C9, 0.282 µM (inconclusive). As for `O=C(OCC(=O)N1CCN(C(=O)c2ccco2)CC1)c1cccc(S(=O)(=O)N2CCc3ccccc32)c1`, the AC50 on Paired box protein Pax-8 was 1.38 µM (active). As to `COC(=O)C1CC(Cl)CN1c1ncc(C(F)(F)F)cc1Cl` (stereo not given), in test [7], the IC50 was > 47.1 µM (inactive). Besides, the EC50 in test [8] was > 53 µM (inactive).

With `Cc1cccc2cc(C#N)c(N3CCN(C)CC3)nc12`, the IC50 in test [7] was > 47.1 µM (inactive). Also, the EC50 in test [8] was > 53 µM (inactive).

With `CCOC(=O)c1cnn(CCOC(=O)c2cccc(F)c2)c1NC(=O)c1cccc(F)c1`, the AC50 on Paired box protein Pax-8 was 20 µM (active). With `CCOc1ccc(C2C(C(=O)Nc3ccccc3)=C(C)N=c3s/c(=C/c4cccc(OCC(=O)O)c4)c(=O)n32)cc1` (stereo not given), the IC50 on Leucine aminopeptidase was 5.95 µM (active).

Regarding `Cc1ccc(NC(=O)/C(=C\c2cccnc2)NC(=O)c2ccco2)cc1`, the AC50 at Cytochrome P450 2C19 was 35.5 µM (inconclusive); on Cytochrome P450 2C9, 20 µM (inconclusive).

`OC(CNCc1ccc(Cl)cc1)(c1ccccc1)c1ccc(F)cc1` (stereo not given): in test [4], the IC50 is given as 12.1 µM (not active). As to `O=C1c2ccc3c4c(ccc(c24)C(=O)N1c1ccc2ccccc2c1)CC3`, the EC50 in [1] is 11.6 µM (active); in test [2], 36.6 µM (active); in [3], 119 µM (active). Further, the AC50 was 2.24 µM (inconclusive) on Cytochrome P450 2C19 and 3.98 µM (inconclusive) at Cytochrome P450 2C9. Turning to `CC(C)(C)n1nc2c(c1NC(=O)Cc1ccccc1)CS(=O)(=O)C2`, the IC50 in test [7] is > 47.1 µM (inactive). For the same compound, the EC50 in test [8] was > 53 µM (inactive). Take `O=C1C2CCCCC2C(=O)N1c1ccc(NC2CCCCC2)c([N+](=O)[O-])c1` (stereo not given): the IC50 in test [4] is 4.65 µM (active).

Regarding `Cc1ccc(CNC(=O)CCCCCNc2nc(S)nc3ccccc23)cc1`, the IC50 in test [4] was 24.8 µM (not active). Take `Cc1cc(NS(=O)(=O)c2ccc(NC(=O)CN3C(=O)c4ccccc4C3=O)cc2)nc(C)n1`: the IC50 on Leucine aminopeptidase is 64.4 µM (active). Still for that read-out and setting: under `COc1cccc(CNc2nn[nH]n2)c1OC` stands 67.2 µM (active).

As to `CCCOC(=O)Nc1cc(OC)ccc1[N+](=O)[O-]`, the IC50 in test [4] is listed as 8.71 µM (not active).

A word on the AC50: it is the midpoint of the concentration-response curve, whichever way the signal moves.
